In ChEMBL document CHEMBL1132009, “Inhibition of MMP-1 and MMP-13 with phosphinic acids that exploit binding in the S2 pocket” (Bioorg Med Chem Lett, 1999):
pIC50, pKi: −log10 of the molar value.

Tests used:
Interstitial collagenase = biological target: T1, Interstitial collagenase (Homo sapiens, UniProt P03956); assay: Inhibitory activity against recombinant matrix metalloprotease-1 (MMP-1).
T1 sequence (P03956 whole entry): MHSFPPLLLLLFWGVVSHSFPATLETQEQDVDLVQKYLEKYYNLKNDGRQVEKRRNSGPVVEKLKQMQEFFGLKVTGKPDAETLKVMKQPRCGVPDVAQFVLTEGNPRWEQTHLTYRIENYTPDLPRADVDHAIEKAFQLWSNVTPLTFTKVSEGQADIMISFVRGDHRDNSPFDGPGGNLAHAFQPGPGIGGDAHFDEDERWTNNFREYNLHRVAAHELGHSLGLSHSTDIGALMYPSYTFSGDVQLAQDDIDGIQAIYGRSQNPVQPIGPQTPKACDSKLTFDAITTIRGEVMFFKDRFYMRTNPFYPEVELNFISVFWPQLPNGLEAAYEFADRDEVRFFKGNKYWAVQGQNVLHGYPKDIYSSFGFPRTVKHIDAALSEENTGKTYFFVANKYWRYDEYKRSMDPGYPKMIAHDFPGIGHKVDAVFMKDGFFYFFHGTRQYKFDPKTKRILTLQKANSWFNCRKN

Collagenase 3 = Collagenase 3 (Homo sapiens, UniProt P45452); assay: Inhibition of recombinant Matrix metalloprotease-13 (MMP-13)
[1] = biological target: 72 kDa type IV collagenase (Homo sapiens, UniProt P08253); assay: Inhibition of recombinant matrix metalloprotease-2 (MMP-2)
Stromelysin-1 = Stromelysin-1 (Homo sapiens, UniProt P08254); assay: Inhibition of recombinant matrix metalloprotease-3 (MMP-3)
[2] = Clearance after iv administration to rats; type: ADME, organism-based; details: rat, in vivo
[3] = Terminal half-life after iv administration to rats; type: ADME, organism-based; details: rat, in vivo
[4] = Steady state volume of distribution after iv administration to rats; type: ADME, organism-based; details: rat, in vivo
[5] = Selectivity ratio for MMP-2 over MMP-3

Stromelysin-1, sequence (P08254 whole entry): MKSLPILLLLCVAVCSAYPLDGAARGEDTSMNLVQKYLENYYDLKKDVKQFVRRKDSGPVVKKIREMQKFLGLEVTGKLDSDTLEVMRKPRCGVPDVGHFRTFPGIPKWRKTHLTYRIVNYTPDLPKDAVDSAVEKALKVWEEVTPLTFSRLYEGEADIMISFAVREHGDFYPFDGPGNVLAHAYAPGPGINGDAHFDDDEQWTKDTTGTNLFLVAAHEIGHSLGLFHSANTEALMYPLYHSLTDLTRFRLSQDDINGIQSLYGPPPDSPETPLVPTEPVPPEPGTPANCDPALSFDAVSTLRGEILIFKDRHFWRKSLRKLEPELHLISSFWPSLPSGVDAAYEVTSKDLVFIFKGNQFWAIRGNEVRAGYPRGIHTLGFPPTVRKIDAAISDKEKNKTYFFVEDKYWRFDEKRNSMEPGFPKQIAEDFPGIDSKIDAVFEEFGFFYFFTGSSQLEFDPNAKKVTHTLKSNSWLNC
72 kDa type IV collagenase, sequence (P08253 whole entry): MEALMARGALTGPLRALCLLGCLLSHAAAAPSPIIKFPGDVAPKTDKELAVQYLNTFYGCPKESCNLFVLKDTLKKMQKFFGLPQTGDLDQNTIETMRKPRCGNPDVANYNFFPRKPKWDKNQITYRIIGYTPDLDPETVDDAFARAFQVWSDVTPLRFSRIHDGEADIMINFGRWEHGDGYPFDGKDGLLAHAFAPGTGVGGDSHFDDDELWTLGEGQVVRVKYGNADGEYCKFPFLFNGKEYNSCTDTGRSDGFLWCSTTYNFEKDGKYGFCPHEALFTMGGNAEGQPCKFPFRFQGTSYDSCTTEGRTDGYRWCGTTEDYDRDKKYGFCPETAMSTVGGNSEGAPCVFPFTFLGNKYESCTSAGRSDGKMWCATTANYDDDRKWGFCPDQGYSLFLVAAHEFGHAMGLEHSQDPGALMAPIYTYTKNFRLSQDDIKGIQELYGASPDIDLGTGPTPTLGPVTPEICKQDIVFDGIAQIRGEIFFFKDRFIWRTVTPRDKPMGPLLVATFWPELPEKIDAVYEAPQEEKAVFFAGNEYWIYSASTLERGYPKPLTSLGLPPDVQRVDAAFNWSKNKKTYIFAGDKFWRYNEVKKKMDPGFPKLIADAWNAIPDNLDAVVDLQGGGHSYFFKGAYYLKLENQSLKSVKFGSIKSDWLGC

Compound | pIC50 (Interstitial collagenase) | pIC50 (Collagenase 3) | also measured
CNC(=O)[C@H](NC(=O)C(CC(C)C)CP(=O)(O)Cc1ccc(C(=O)c2ccccc2)cc1)C(C)(C)C (some centres undefined) | 6.12 | – | –
CNC(=O)[C@H](NC(=O)C(CC1CC1)CP(=O)(O)Cc1ccc(Cc2ccccc2)cc1)C(C)(C)C (some centres undefined) | 6.70 | 5.96 | –
CNC(=O)[C@H](NC(=O)C(CC1CCC1)CP(=O)(O)Cc1ccc(Cc2ccccc2)cc1)C(C)(C)C (some centres undefined) | 6.74 | 6.96 | –
CC(C)C[C@@H](NC(=O)[C@H](CCc1ccccc1)CP(=O)(O)CCCCN1C(=O)c2ccccc2C1=O)C(=O)Nc1ccccc1 | – | – | pKi [1]: 7.70
CNC(=O)[C@H](NC(=O)C(CCC(F)(F)F)CP(=O)(O)Cc1ccc(Cc2ccccc2)cc1)C(C)(C)C (some centres undefined) | 7.35 | 5.80 | –
CC(C)CC(CP(=O)(O)Cc1ccc(Cc2ccccc2)cc1)C(=O)NCC(C)(C)C (centres undefined) | 4.70 | – | –
CNC(=O)[C@H](NC(=O)C(CC1CCCCC1)CP(=O)(O)Cc1ccc(Cc2ccccc2)cc1)C(C)(C)C (some centres undefined) | 5.74 | 5.80 | –
CNC(=O)[C@H](NC(=O)C(CCc1ccccc1)CP(=O)(O)Cc1ccccc1)C(C)(C)C (some centres undefined) | 4.66 | 6.52 | pIC50 (Stromelysin-1): 5.57
CC(C)CC(CP(=O)(O)Cc1ccc(Cc2ccccc2)cc1)C(=O)NC(CO)C(C)(C)C (centres undefined) | 4.74 | – | –
CNC(=O)[C@H](NC(=O)C(CC(C)C)CP(=O)(O)Cc1ccc(Cc2ccccc2)cc1)C(C)(C)C (some centres undefined) | 7.22 | 6.74 | –
CNC(=O)[C@H](NC(=O)C(CCC1CCCCC1)CP(=O)(O)Cc1ccc(Cc2ccccc2)cc1)C(C)(C)C (some centres undefined) | 4.72 | 5.70 | –
CNC(=O)[C@H](NC(=O)C(CCC(C)C)CP(=O)(O)Cc1ccc(Cc2ccccc2)cc1)C(C)(C)C (some centres undefined) | 5.46 | < 5.52 | –
CC(=O)N1CCC[C@H]1C(=O)NCCCCP(=O)(O)C[C@@H](CCc1ccccc1)C(=O)N[C@H](CC(C)C)C(=O)Nc1ccccc1 | – | – | pKi (Stromelysin-1): 7.21; pKi [1]: 8.21; Selectivity [5]: 10

More lines, main results first:

pIC50 (Interstitial collagenase) | Compound | pIC50 (Collagenase 3) | also measured
5.68 | CNC(=O)[C@@H](Cc1ccc(OC)cc1)NC(=O)C(CC(C)C)CP(=O)(O)Cc1ccc(C(=O)NCc2ccccc2)cc1 (some centres undefined) | – | –
5.64 | CNC(=O)[C@@H](C)NC(=O)C(CC(C)C)CP(=O)(O)Cc1ccc(Cc2ccccc2)cc1 (some centres undefined) | – | –
< 4.52 | CNC(=O)[C@H](NC(=O)C(CCCCOc1ccccc1)CP(=O)(O)Cc1ccc(Cc2ccccc2)cc1)C(C)(C)C (some centres undefined) | 7.52 | –
6.16 | CNC(=O)[C@H](NC(=O)C(CCc1ccccc1)CP(=O)(O)Cc1ccc(Cc2ccccc2)cc1)C(C)(C)C (some centres undefined) | 7.85 | clearance [2]: 12 mL/min/kg; half-life [3]: 2.3 h; pIC50 (Stromelysin-1): 5.92; Vd [4]: 0.2 L/kg
